A short description of assay [1]: DPPH free radical scavenging assay. To be noted: 30 min, 517 nm. As to the method: One hundred mg of (AJ) EO was dissolved in 100 mL of methanol to create the stock solution (1 mg/mL). The obtained solution was mixed with methanol to obtain different concentrations (2, 3, 5, 7, 10, 20, 30, 40, 50, 80, and 100 μg/mL). One milliliter of stock solution and 1 mL of methanol were mixed with 1 mL of DPPH (Sigma-Aldrich, Steinheim, Germany). Then, the solution was kept in the dark at room temperature for 30 min. However, by replacing the plant EO solution with methanol, the blank solution was prepared. Trolox (Sigma-Aldrich, St. Louis, MO, USA) was utilized as a positive control, and the absorbance for all obtained samples was measured by spectrophotometer (Shimadzu-UV-1800, Kyoto, Japan) at 517 nm. The DPPH inhibitory potentials were estimated utilizing the following formula:I (%) = [ABSblank − ABStest]/[ABSblank]) × 100%(2) where I (%) is the percentage of DPPH inhibitory potentials.
For orientation: DPPH is a stable violet radical that fades when it is reduced.

In the next assay the test system is P. vulgaris. Put plainly: Broth microdilution MIC, P. vulgaris. In kind it is cell-based, Proteus vulgaris (ATCC 8427). As to the method:
(§1) The antibacterial effect of (AJ) EO was determined utilizing several strains of bacteria, which were obtained from the American Type Culture Collection (ATCC): Pseudomonas aeruginosa (ATCC 9027), Escherichia coli (ATCC 25922), Klebsiella pneumonia (ATCC 13883), Proteus vulgaris (ATCC 8427), and Staphylococcus aureus (ATCC 25923), and from a diagnostically confirmed methicillin-resistant Staphylococcus aureus (MRSA). The antifungal activity of (AJ) EO was evaluated against the growth of Candida albicans (ATCC 90028). The antimicrobial activity of the (AJ) EO used in this study was estimated using the broth microdilution method. The (AJ) EO was dissolved in DMSO to a concentration of 200 µg/mL. The produced solution was serially micro-diluted (2-fold) 10 times in sterile Mueller–Hinton broth (Thermo Fisher Scientific, Waltham, MA, USA). The dilution processes were performed under aseptic conditions in 96-well plates. In the micro-wells that were assigned to evaluate the antibacterial activity of (AJ) EO, micro-well number 11 contained plant-free Mueller–Hinton broth, which was used as a positive control for microbial growth. Micro-well number 12 contained plant-free and microbial-free Mueller–Hinton broth, which was used as a negative control for microbial growth. Micro-wells numbered 1–11 were inoculated aseptically with the test microbes. The (AJ) EO antimicrobial activity was determined in triplicate. All the inoculated plates were incubated at 35 °C. Regarding C. albicans, the same method was used but using RPMI media (Thermo Fisher Scientific, Waltham, MA, USA) instead of Mueller–Hinton broth. The incubation period lasted for about 18–24 h for those plates inoculated with the test bacterial strains and for about 48 h for those plates inoculated with C. albicans. […]
On the technique in general: Dilution methods test growth across graded concentrations, often in twofold steps.

The target in another assay is T1, bovine COX-1 (Ovis aries, UniProt P05979).
T1 construct: purchased Cayman Chemical 560131
T1 sequence (P05979 25-600): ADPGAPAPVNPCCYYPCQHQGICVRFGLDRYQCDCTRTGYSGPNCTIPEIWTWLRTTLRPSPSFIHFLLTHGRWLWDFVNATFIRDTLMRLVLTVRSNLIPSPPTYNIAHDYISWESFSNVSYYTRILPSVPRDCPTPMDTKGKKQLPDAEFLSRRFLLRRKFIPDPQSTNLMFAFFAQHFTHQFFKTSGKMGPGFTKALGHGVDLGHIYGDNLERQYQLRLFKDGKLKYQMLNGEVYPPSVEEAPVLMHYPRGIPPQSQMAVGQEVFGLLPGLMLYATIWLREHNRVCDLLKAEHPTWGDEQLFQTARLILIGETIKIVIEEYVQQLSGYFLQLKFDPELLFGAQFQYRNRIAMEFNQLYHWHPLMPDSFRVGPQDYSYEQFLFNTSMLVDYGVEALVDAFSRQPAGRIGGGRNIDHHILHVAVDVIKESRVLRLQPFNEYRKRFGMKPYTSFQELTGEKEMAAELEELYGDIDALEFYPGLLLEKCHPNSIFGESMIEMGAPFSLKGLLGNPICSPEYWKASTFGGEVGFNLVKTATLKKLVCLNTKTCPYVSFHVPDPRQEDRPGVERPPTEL
Put plainly: COX inhibitor screening assay kit, COX-1. The assay is classed as biochemical. To be noted: calculated from two concentrations (350 and 50 µg/mL); read-out: IC50 COX-1. How it is done: The ability of the (AJ) EO to prevent the conversion of arachidonic acid to PGH2 by bovine COX-1 and human recombinant COX-2 was assessed using a COX inhibitor screening assay kit (Item No: 560131, Cayman Chemical, Ann Arbor, MI, USA) according to manufacturer’s guidelines. The 50% inhibitory concentration (IC50) of COX-1/COX-2 activity of the tested samples was determined, with the assay run, in duplicate, with two concentrations (350 and 50 µg/mL). A standard curve of eight concentrations of prostaglandin, a non-specific binding sample, and a maximum binding sample was used, as instructed in the kit manual, to determine the inhibition of the sample plant, applying the generated multiple regression best-fit line. The percentage inhibition of the two concentrations was used to calculate the IC50 [69, 70].

The target in another assay is T2, human recombinant COX-2 (Homo sapiens, UniProt P35354).
T2 construct: purchased Cayman Chemical 560131
T2 sequence (P35354 18-604): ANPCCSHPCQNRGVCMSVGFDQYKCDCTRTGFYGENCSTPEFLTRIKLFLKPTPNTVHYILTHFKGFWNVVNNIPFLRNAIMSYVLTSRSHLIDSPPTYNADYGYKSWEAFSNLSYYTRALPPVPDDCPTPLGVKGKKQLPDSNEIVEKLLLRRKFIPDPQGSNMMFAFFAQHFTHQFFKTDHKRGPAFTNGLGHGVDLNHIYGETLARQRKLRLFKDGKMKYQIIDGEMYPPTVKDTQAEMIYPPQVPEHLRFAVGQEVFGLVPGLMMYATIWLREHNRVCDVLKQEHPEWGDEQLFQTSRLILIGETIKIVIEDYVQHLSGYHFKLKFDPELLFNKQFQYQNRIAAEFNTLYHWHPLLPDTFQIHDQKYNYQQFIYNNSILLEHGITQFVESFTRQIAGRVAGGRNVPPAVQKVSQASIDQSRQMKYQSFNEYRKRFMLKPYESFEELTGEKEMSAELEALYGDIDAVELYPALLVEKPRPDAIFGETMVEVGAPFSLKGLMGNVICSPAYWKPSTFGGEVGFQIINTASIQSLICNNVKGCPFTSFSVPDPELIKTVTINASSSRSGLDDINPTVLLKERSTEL
In words: COX inhibitor screening assay kit, COX-2. In kind it is biochemical. As to conditions: calculated from two concentrations (350 and 50 µg/mL); read-out: IC50 COX-2. An excerpt: The percentage inhibition of the two concentrations was used to calculate the IC50 [69, 70].

A further assay has as its system Caco-2. Put plainly: MTS cytotoxicity assay, Caco-2. In kind it is cell-based. As to conditions: Homo sapiens, 24 h, read-out: IC50 against Caco-2. How it is done:
(§2) The liver (Hep3B), breast (MCF-7), Human cervical (HeLa), and Colon (CACO-2) tumor cell lines were cultivated separately in RPMI-1640 media (Sigma, Norwich, UK), which was treated with 1% L-glutamine (Sigma, London, UK), 1% penicillin/streptomycin antibiotics (BI, New Delhi, India), and 10% fetal bovine serum. Cancer cells were grown at 37 °C in a humidified atmosphere with 5% CO2. Cells were seeded at 2.6 × 10^4 cells/well in a 96-well plate. […] Cell viability was evaluated by the CellTilter 96® Aqueous One Solution Cell Proliferation (MTS) Assay according to the manufacturer’s directions (Promega Corporation, Madison, WI, USA). At the end of the treatment, 20 μL of MTS solution per 100 μL of media was added to each well, and the solutions in the well plates were incubated at 37 °C for 2 h. The absorbance was measured at 490 nm.
(Tetrazolium dyes change colour on reduction, which living cells bring about.)

Another assay relates to HeLa. In words: MTS cytotoxicity assay, HeLa. The assay is classed as cell-based. To be noted: Homo sapiens, 24 h, read-out: IC50 against HeLa. How it is done: as §2
Another assay relates to HepG2. In words: MTS cytotoxicity assay, HepG2. The assay is classed as cell-based. As to conditions: Homo sapiens, 24 h, text names Hep3B, read-out: IC50 against HepG2.
The test system of a further assay is MRSA. Put plainly: Broth microdilution MIC, MRSA. In kind it is cell-based, methicillin-resistant Staphylococcus aureus. Also on record: key: R: Resistant. How it is done:
(§3) The antimicrobial activity of the (AJ) EO used in this study was estimated using the broth microdilution method. The (AJ) EO was dissolved in DMSO to a concentration of 200 µg/mL. The produced solution was serially micro-diluted (2-fold) 10 times in sterile Mueller–Hinton broth (Thermo Fisher Scientific, Waltham, MA, USA). The dilution processes were performed under aseptic conditions in 96-well plates. In the micro-wells that were assigned to evaluate the antibacterial activity of (AJ) EO, micro-well number 11 contained plant-free Mueller–Hinton broth, which was used as a positive control for microbial growth. Micro-well number 12 contained plant-free and microbial-free Mueller–Hinton broth, which was used as a negative control for microbial growth. Micro-wells numbered 1–11 were inoculated aseptically with the test microbes. The (AJ) EO antimicrobial activity was determined in triplicate. All the inoculated plates were incubated at 35 °C. Regarding C. albicans, the same method was used but using RPMI media (Thermo Fisher Scientific, Waltham, MA, USA) instead of Mueller–Hinton broth. The incubation period lasted for about 18–24 h for those plates inoculated with the test bacterial strains and for about 48 h for those plates inoculated with C. albicans.

In another assay the test system is K. pneumoniae. Put plainly: Broth microdilution MIC, K. pneumoniae. In kind it is cell-based, Klebsiella pneumonia (ATCC 13883). To be noted: Klebsiella pneumoniae. How it is done: as §3
Another assay relates to P. aeruginosa. Put plainly: Broth microdilution MIC, P. aeruginosa. In kind it is cell-based, Pseudomonas aeruginosa (ATCC 9027). Set-up: key: R: Resistant. As to the method: as §1, with “Micro-wells numbered 1–11 were inoculated aseptically with the test microbes.” left out, “triplicate.” for “triplicate. All the inoculated plates were incubated at 35 °C. Regarding C. albicans, the same method was used but using RPMI media (Thermo Fisher Scientific, Waltham, MA, USA) instead of Mueller–Hinton broth. The incubation period lasted for about 18–24 h for those plates inoculated with the test bacterial strains and for about 48 h for those plates inoculated with C. albicans.”

The mark [2] stands for this setting: Proteus vulgaris, read-out: MIC.

In brackets after ≈: the same amount, converted by molar mass. Read-outs that look alike come from different tables or passages of the source. Marks after values point to notes of the source that are not given here.

Turning to `Cc1c(C)c2c(c(C)c1O)CCC(C)(C(=O)O)O2` (stereo not shown) [Trolox], the “IC50 against DPPH” value in assay [1] is listed as 1.58 ± 1.49 ^a µg/mL.
With `O=C(O)c1cn(C2CC2)c2cc(N3CCNCC3)c(F)cc2c1=O` [Ciprofloxacin, ciprofloxacin], the MIC in the assay with P. vulgaris and in the assay with P. vulgaris (setting [2]) was 15 µg/mL (≈ 45.3 µM) each time.
As for `CC(C(=O)O)c1cccc(C(=O)c2ccccc2)c1` (stereo not shown) [Ketoprofen], the potency estimated from few doses at bovine COX-1 is 7.89 ± 0.96 µg/mL (≈ 31 µM); on human recombinant COX-2, 40.2 ± 1.09 µg/mL (≈ 158 µM).
Take `COc1cccc2c1C(=O)c1c(O)c3c(c(O)c1C2=O)C[C@@](O)(C(=O)CO)C[C@@H]3O[C@H]1C[C@H](N)[C@H](O)[C@H](C)O1` [doxorubicin]: the IC50 (as a rule, the point on the concentration scale where inhibition reaches its midpoint) worked out at 0.37 ± 0.08 µg/mL (≈ 0.681 µM) in the assay on Caco-2, 0.84 ± 0.03 µg/mL (≈ 1.55 µM) with HeLa and 1.21 ± 0.05 µg/mL (≈ 2.23 µM) in the assay with HepG2.
`CC1(C)S[C@@H]2[C@H](NC(=O)[C@H](N)c3ccccc3)C(=O)N2[C@H]1C(=O)O` [Ampicillin, ampicillin]: the MIC (in general, the smallest concentration in the dilution series that meets the test's criterion for growth inhibition) in the assay on MRSA was “R”; in the assay with MRSA (listed as ampicillin), “does not have antibacterial activity”; in the assay on K. pneumoniae, 1 µg/mL (≈ 2.86 µM); in the assay with P. vulgaris (setting [2]), 18 µg/mL (≈ 51.5 µM); in the assay with P. aeruginosa, “R”.

The values above are taken from paper PMC8126209, “Phytochemical Profile and In Vitro Antioxidant, Antimicrobial, Vital Physiological Enzymes Inhibitory and Cytotoxic Effects of Artemisia jordanica Leaves Essential Oil from Palestine” (Molecules, 2021).
